Measurements taken from ChEMBL document CHEMBL1201862, “PubChem BioAssay data set” (2004).
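1) Cells in 96-well plates. 2) Compound, 48 h, 5 concentrations. 3) Linear interpolation between surrounding doses. 4) Unreached endpoint = highest concentration. GI50 is the concentration that inhibits growth by half.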 Calls of active or inactive are those of the source. No stated cut-off is given here; in the data, active = GI50 up to about 1.1 µM and inactive = higher.

Key:
Assay in all cases: inhibition of tumour cell growth, NCI panel, 48 h
SNB-75 = system: SNB-75
ACHN = system: ACHN
MCF7 = system: MCF7
SF-268 = system: SF-268
HT-29 = system: HT-29
UACC-257 = system: UACC-257
OVCAR-5 = system: OVCAR-5
MDA-N = system: MDA-N
OVCAR-8 = system: OVCAR-8
NCI-H460 = system: NCI-H460
DU-145 = system: DU-145
SK-MEL-5 = system: SK-MEL-5
SR = system: SR
RXF 393 = system: RXF 393
NCI/ADR-RES = system: NCI/ADR-RES
NCI-H226 = system: NCI-H226
M14 = system: M14
UO-31 = system: UO-31
HOP-92 = system: HOP-92
786-0 = system: 786-0
BT-549 = system: BT-549
SN12C = system: SN12C
EKVX = system: EKVX
CCRF-CEM = system: CCRF-CEM
K562 = system: K562
T47D = system: T47D
TK-10 = system: TK-10
SK-OV-3 = system: SK-OV-3
SNB-19 = system: SNB-19
KM12 = system: KM12
A549 = system: A549
COLO 205 = system: COLO 205
HCT-116 = system: HCT-116
OVCAR-3 = system: OVCAR-3
SK-MEL-28 = system: SK-MEL-28
HCC 2998 = system: HCC 2998
UACC-62 = system: UACC-62
LOX IMVI = system: LOX IMVI
SF-295 = system: SF-295
RPMI-8226 = system: RPMI-8226
MOLT-4 = system: MOLT-4
NCI-H522 = system: NCI-H522
SF-539 = system: SF-539
MDA-MB-435 = system: MDA-MB-435
Hs-578T = system: Hs-578T
A498 = system: A498
NCI-H23 = system: NCI-H23
SW-620 = system: SW-620
OVCAR-4 = system: OVCAR-4
HL-60 = system: HL-60
HOP-62 = system: HOP-62
Malme-3M = system: Malme-3M
HCT-15 = system: HCT-15
CAKI-1 = system: CAKI-1

In the case of `COc1cc(C(=O)N(Cc2cccnc2)C(=S)N(Cc2cccnc2)C(=O)c2cc(OC)c(OC)c(OC)c2)cc(OC)c1OC`, the GI50 (SNB-75) is reported as 21.4 µM (inactive), the GI50 (ACHN) is reported as > 100 µM (inactive) and the GI50 (MCF7) is reported as 19.9 µM (inactive). The GI50 (SF-268) was 40.4 µM (inactive), the GI50 (HT-29) was 35.4 µM (inactive) and the GI50 (UACC-257) was 70 µM (inactive). For the same compound, the GI50 (OVCAR-5) was > 100 µM (inactive), the GI50 (MDA-N) was 36 µM (inactive) and the GI50 (OVCAR-8) was 28.7 µM (inactive). The GI50 (NCI-H460) was 94 µM (inactive), the GI50 (DU-145) was 52.2 µM (inactive) and the GI50 (SK-MEL-5) was 76.9 µM (inactive). The GI50 (SR) was 48.3 µM (inactive), the GI50 (RXF 393) was 38.4 µM (inactive) and the GI50 (NCI/ADR-RES) was > 100 µM (inactive). The GI50 (NCI-H226) was > 100 µM (inactive), the GI50 (M14) was 94.8 µM (inactive) and the GI50 (UO-31) was 49.8 µM (inactive). For the same compound, the GI50 (HOP-92) was 15.1 µM (inactive), the GI50 (786-0) was 36.2 µM (inactive) and the GI50 (BT-549) was 28.5 µM (inactive). The GI50 (SN12C) was 37.9 µM (inactive), the GI50 (EKVX) was > 100 µM (inactive) and the GI50 (CCRF-CEM) was 30.3 µM (inactive). For the same compound, the GI50 (K562) was 52 µM (inactive), the GI50 (T47D) was 34.9 µM (inactive) and the GI50 (TK-10) was 89.1 µM (inactive). The GI50 (SK-OV-3) was > 100 µM (inactive), the GI50 (SNB-19) was > 100 µM (inactive) and the GI50 (KM12) was 22.4 µM (inactive). For the same compound, the GI50 (A549) was > 100 µM (inactive), the GI50 (COLO 205) was 35 µM (inactive) and the GI50 (HCT-116) was 31 µM (inactive). For the same compound, the GI50 (OVCAR-3) was 34.4 µM (inactive), the GI50 (SK-MEL-28) was > 100 µM (inactive) and the GI50 (HCC 2998) was 24.3 µM (inactive). The GI50 (UACC-62) was 31.6 µM (inactive), the GI50 (LOX IMVI) was 30.7 µM (inactive) and the GI50 (SF-295) was > 100 µM (inactive). The GI50 (RPMI-8226) was 56.6 µM (inactive), the GI50 (MOLT-4) was 54.2 µM (inactive) and the GI50 (NCI-H522) was 23.9 µM (inactive). The GI50 (SF-539) was > 100 µM (inactive), the GI50 (MDA-MB-435) was 31 µM (inactive) and the GI50 (Hs-578T) was > 100 µM (inactive). The GI50 (A498) was 23.2 µM (inactive), the GI50 (NCI-H23) was 49.2 µM (inactive) and the GI50 (SW-620) was 32.9 µM (inactive). For the same compound, the GI50 (OVCAR-4) was 17.8 µM (inactive), the GI50 (HL-60) was 37.2 µM (inactive) and the GI50 (HOP-62) was 37.5 µM (inactive). For the same compound, the GI50 (Malme-3M) was 89.7 µM (inactive), the GI50 (HCT-15) was 37.7 µM and the GI50 (CAKI-1) was 30.4 µM (inactive).
